Results reported in patent US8697661B2, “Use of spinosyns and spinosyn compositions against herpesviridae viral infections” (priority 2009, dated 2014).

Columns and labels:
[1] = system: H460 cells; assay: Cytotoxicity on H460 cells, ApoTox-Glo Triplex assay; format: cell-based
[2] = system: pancreatic tumor xenograph; assay: Mouse pancreatic tumor xenograph assay; format: in vivo; conditions: for tumor volume on day1: baseline
[3] = system: Herpes Simplex Virus type 1, McIntyre (HSV1); assay: Viral Plaque Reduction Assay / inhibition of infection assay, HSV1 in Vero cells; format: cell-based; conditions: 10 μg/ml spinosad
[4] = mouse code 3, total spinosad dosed 390 mg/kg i.p. over 20 days
[5] = mouse code 6, total spinosad dosed 360 mg/kg i.p. over 20 days
[6] = mouse code 9, total spinosad dosed 540 mg/kg i.p. over 20 days
[7] = mouse code 10, total spinosad dosed 540 mg/kg i.p. over 20 days
[8] = mouse code 12, total spinosad dosed 615 mg/kg i.p. over 20 days
[9] = mouse code 13, total spinosad dosed 585 mg/kg i.p. over 20 days

Substance: Spinosad
- cytotoxicity ([1]; 20 μg/mL spinosad, 3 hours of treatment): no cytotoxicity
- concentration above which cell viability decreases ([1]; three hours of treatment): higher than 20 μg/mL
- body weight ([2]; CD-1 athymic nude male mice, spinosad in DMSO i.p., on top of weight loss by DMSO alone): some weight loss
- % difference of tumor volume day 21 vs day1 ([2]; mouse code 3, total spinosad dosed 390 mg/kg): −42%
- tumor volume on day 21 [2, 4]: 107.7 mm^3
- tumor volume on day1 [2, 4]: 184.7 mm^3
- % difference of tumor volume day 21 vs day1 ([2]; mouse code 6, total spinosad dosed 360 mg/kg): −2%
- tumor volume on day 21 [2, 5]: 254.7 mm^3
- tumor volume on day1 [2, 5]: 260.6 mm^3
- % difference of tumor volume day 21 vs day1 ([2]; mouse code 9, total spinosad dosed 540 mg/kg): −33%
- tumor volume on day 21 [2, 6]: 119.8 mm^3
- tumor volume on day1 [2, 6]: 179.9 mm^3
- % difference of tumor volume day 21 vs day1 ([2]; mouse code 10, total spinosad dosed 540 mg/kg): −44%
- tumor volume on day 21 [2, 7]: 128.9 mm^3
- tumor volume on day1 [2, 7]: 228.9 mm^3
- % difference of tumor volume day 21 vs day1 ([2]; mouse code 12, total spinosad dosed 615 mg/kg): −11%
- tumor volume on day 21 [2, 8]: 142.1 mm^3
- tumor volume on day1 [2, 8]: 159.4 mm^3
- % difference of tumor volume day 21 vs day1 ([2]; mouse code 13, total spinosad dosed 585 mg/kg): 6%
- tumor volume on day 21 [2, 9]: 246.5 mm^3
- tumor volume on day1 [2, 9]: 233.3 mm^3
- mean volume change ([2]; spinosad treated group (6 mice), total 360-615 mg/kg i.p. over 20 days, day 21 vs day1, DMSO control 54%, P < 0.02): −21%
- mean tumor volume decreased by ([2]; spinosad treated group, 21st day, control/DMSO group increased 54%, P-value <0.02): 21%
- inhibition of approximately 20 infectious units of the HSV1 virus [3]: 100%
- inhibition of higher virus loads ([3]; more than approximately 20 infectious units): not inhibited
